For the test, the species on record is Homo sapiens. Put plainly: In vitro inhibition of ADP induced human platelet aggregation in platelet rich plasma(PRP) and presence of Tris buffer. It is filed as functional.

pIC50: −log10 of the molar value. Numbered stars: 1 amine (or outer) side, 2 acyl side, 3 side chain; on linkers, the order of the positions; unused ones are H or OH. Bridge positions count the residues as written; N and C are the ends. Square brackets hold non-standard residues; d marks the D form. Peptide text beside a SMILES is read from it. I, II: the chains in the order shown. * marks the point of attachment. Benzoyl(4-guanidino) = N=C(N)Nc1ccc(C(=O)*)cc1; X1 = NC(=O)c1cc(N[*:1])cc(N[*:2])c1; Adipoyl = O=C(CCCCC(=O)[*:2])[*:1]; Glutaryl = O=C(CCCC(=O)[*:2])[*:1]; Suc = O=C(CCC(=O)[*:2])[*:1]; X2 = O=C1Oc2ccccc2CC1C(=O)*; 3Abz = Nc1cccc(C(=O)O)c1; 4Abz = Nc1ccc(C(=O)O)cc1; 2Abz = Nc1ccccc1C(=O)O; Hexanoyl = CCCCCC(=O)*; Bz = O=C(c1ccccc1)*

As for `NCC(=O)N[C@@H](CCCN=C(N)N)C(=O)NCC(=O)N[C@@H](CC(=O)O)C(=O)N[C@@H](Cc1ccccc1)C(=O)NCC(=O)Nc1cc(NC(=O)CNC(=O)[C@H](Cc2ccccc2)NC(=O)[C@H](CC(=O)O)NC(=O)CNC(=O)[C@H](CCCN=C(N)N)NC(=O)CN)cc(C(=O)NCC(=O)N[C@@H](CCCN=C(N)N)C(=O)NCC(=O)N[C@@H](CC(=O)O)C(=O)N[C@@H](Cc2ccccc2)C(N)=O)c1`, the negative logarithm of the IC50 (pIC50) is 4.48. As to `NC(=O)[C@H](CCCCNC(=O)[C@H](Cc1ccccc1)NC(=O)[C@H](CC(=O)O)NC(=O)CNC(=O)[C@@H](N)CCCN=C(N)N)NC(=O)[C@H](Cc1ccccc1)NC(=O)[C@H](CC(=O)O)NC(=O)CNC(=O)[C@@H](N)CCCN=C(N)N`, the pIC50 was 4.46.

On to `N=C(N)NCCC[C@H](NC(=O)c1ccccc1)C(=O)NCC(=O)N[C@@H](CC(=O)O)C(=O)N[C@@H](Cc1ccccc1)C(=O)NCCCC[C@H](NC(=O)[C@H](Cc1ccccc1)NC(=O)[C@H](CC(=O)O)NC(=O)CNC(=O)[C@H](CCCN=C(N)N)NC(=O)c1ccccc1)C(N)=O`, for which the negative logarithm of the IC50 (pIC50) was 5.59. Regarding `NC(N)=NCCC[C@H](NC(=O)C1CC(NC(=O)[C@H](Cc2ccccc2)NC(=O)[C@H](CC(=O)O)NC(=O)CNC(=O)[C@@H](N)CCCN=C(N)N)CC(NC(=O)[C@H](Cc2ccccc2)NC(=O)[C@H](CC(=O)O)NC(=O)CNC(=O)[C@@H](N)CCCN=C(N)N)C1)C(=O)NCC(=O)N[C@@H](CC(=O)O)C(=O)N[C@@H](Cc1ccccc1)C(=O)O` (stereo partly specified), the pIC50 is 4.66. For `NC(=O)C1CC(NC(=O)[C@H](Cc2ccccc2)NC(=O)[C@H](CC(=O)O)NC(=O)CNC(=O)[C@@H](N)CCCN=C(N)N)CC(NC(=O)[C@H](Cc2ccccc2)NC(=O)[C@H](CC(=O)O)NC(=O)CNC(=O)[C@@H](N)CCCN=C(N)N)C1` (stereo partly specified), the negative-log IC50 (pIC50) was 4.30.

For the compound `CCCCCC(=O)N[C@@H](CCCN=C(N)N)C(=O)NCC(=O)N[C@@H](CC(=O)O)C(=O)N[C@@H](Cc1ccccc1)C(=O)N1CCC[C@H]1C(=O)NCC(=O)Nc1cc(NC(=O)CNC(=O)[C@H]2CCCN2C(=O)[C@@H](Cc2ccccc2)NC(=O)[C@@H](CC(=O)O)NC(=O)CNC(=O)[C@@H](CCCN=C(N)N)NC(=O)CCCCC)cc(C(N)=O)c1`, the negative logarithm of the IC50 (pIC50) is 6.46. As for `N=C(N)NCCC[C@H](NC(=O)c1ccccc1)C(=O)NCC(=O)N[C@@H](CC(=O)O)C(=O)N[C@@H](Cc1ccccc1)C(=O)NC1CC(NC(=O)[C@H](Cc2ccccc2)NC(=O)[C@H](CC(=O)O)NC(=O)CNC(=O)[C@H](CCCN=C(N)N)NC(=O)c2ccccc2)CC(C(=O)N[C@@H](CCCN=C(N)N)C(=O)NCC(=O)N[C@@H](CC(=O)O)C(=O)N[C@@H](Cc2ccccc2)C(=O)O)C1` (stereo partly specified), the pIC50 was 5.13.

On to `N=C(N)NCCC[C@@H](NC(=O)c1ccccc1C(=O)N[C@@H](CCCN=C(N)N)C(=O)NCC(=O)N[C@@H](CC(=O)O)C(=O)N[C@@H](Cc1ccccc1)C(=O)O)C(=O)NCC(=O)N[C@H](CC(=O)O)C(=O)N[C@H](Cc1ccccc1)C(=O)O`, for which the negative-log IC50 (pIC50) was 4.89. Regarding `CCCCCC(=O)N[C@@H](CCCN=C(N)N)C(=O)NCC(=O)N[C@@H](CC(=O)O)C(=O)N[C@@H](Cc1ccccc1)C(=O)NCCCC[C@H](NC(=O)[C@H](Cc1ccccc1)NC(=O)[C@H](CC(=O)O)NC(=O)CNC(=O)[C@H](CCCN=C(N)N)NC(=O)CCCCC)C(N)=O`, the pIC50 was 5.64. The value for `NCC(=O)N[C@@H](CCCN=C(N)N)C(=O)NCC(=O)N[C@@H](CC(=O)O)C(=O)N[C@@H](Cc1ccccc1)C(=O)NCC(=O)Nc1ccccc1C(=O)NCC(=O)N[C@@H](CCCN=C(N)N)C(=O)NCC(=O)N[C@@H](CC(=O)O)C(=O)N[C@@H](Cc1ccccc1)C(=O)O` (H-GRGDFG[2Abz]GRGDF-OH) was 4.20; that for `NCC(=O)N[C@@H](CCCN=C(N)N)C(=O)NCC(=O)N[C@@H](CC(=O)O)C(=O)N[C@@H](Cc1ccccc1)C(=O)NCC(=O)Nc1cccc(C(=O)NCC(=O)N[C@@H](CCCN=C(N)N)C(=O)NCC(=O)N[C@@H](CC(=O)O)C(=O)N[C@@H](Cc2ccccc2)C(=O)O)c1` (H-GRGDFG[3Abz]GRGDF-OH) was 4.72; that for `NCC(=O)N[C@@H](CCCN=C(N)N)C(=O)NCC(=O)N[C@@H](CC(=O)O)C(=O)N[C@@H](Cc1ccccc1)C(=O)NCC(=O)Nc1ccc(C(=O)NCC(=O)N[C@@H](CCCN=C(N)N)C(=O)NCC(=O)N[C@@H](CC(=O)O)C(=O)N[C@@H](Cc2ccccc2)C(=O)O)cc1` (H-GRGDFG[4Abz]GRGDF-OH) was 4.46. With `CC(=O)N[C@@H](CCCN=C(N)N)C(=O)NCC(=O)N[C@@H](CC(=O)O)C(=O)N[C@@H](Cc1ccccc1)C(=O)N1CCC[C@H]1C(=O)NCCCC[C@H](NC(=O)[C@@H]1CCCN1C(=O)[C@H](Cc1ccccc1)NC(=O)[C@H](CC(=O)O)NC(=O)CNC(=O)[C@H](CCCN=C(N)N)NC(C)=O)C(N)=O` (I: Ac-RGDFPK-NH2 / II: Ac-RGDFP; amide I:6-II:C), the negative logarithm of the IC50 (pIC50) was 5.39. On to `N=C(N)NCCC[C@H](NC(=O)c1ccccc1)C(=O)NCC(=O)N[C@@H](CC(=O)O)C(=O)N[C@@H](Cc1ccccc1)C(=O)N1CCC[C@H]1C(=O)NCCCC[C@H](NC(=O)[C@@H]1CCCN1C(=O)[C@H](Cc1ccccc1)NC(=O)[C@H](CC(=O)O)NC(=O)CNC(=O)[C@H](CCCN=C(N)N)NC(=O)c1ccccc1)C(N)=O` (I: Bz-RGDFPK-NH2 / II: Bz-RGDFP; amide I:6-II:C), for which the pIC50 was 5.66. Then `NC(=O)c1cc(NC(=O)CNC(=O)[C@@H]2CCCN2C(=O)[C@H](Cc2ccccc2)NC(=O)[C@H](CC(=O)O)NC(=O)CNC(=O)[C@@H](N)CCCN=C(N)N)cc(NC(=O)CNC(=O)[C@@H]2CCCN2C(=O)[C@H](Cc2ccccc2)NC(=O)[C@H](CC(=O)O)NC(=O)CNC(=O)[C@@H](N)CCCN=C(N)N)c1` (I: H-RGDFPG / II: H-RGDFPG; linker I:C-II:C via X1), with 4.89; and `CCCCCC(=O)N[C@@H](CCCN=C(N)N)C(=O)NCC(=O)N[C@@H](CC(=O)O)C(=O)N[C@@H](Cc1ccccc1)C(=O)N1CCC[C@H]1C(=O)NCCCC[C@H](NC(=O)[C@@H]1CCCN1C(=O)[C@H](Cc1ccccc1)NC(=O)[C@H](CC(=O)O)NC(=O)CNC(=O)[C@H](CCCN=C(N)N)NC(=O)CCCCC)C(N)=O` (I: Hexanoyl-RGDFPK-NH2 / II: Hexanoyl-RGDFP; amide I:6-II:C), with 5.92.

On to `N=C(N)NCCC[C@H](NC(=O)CCCCC(=O)N[C@@H](CCCNC(=N)N)C(=O)NCC(=O)N[C@@H](CC(=O)O)C(=O)N[C@@H](Cc1ccccc1)C(=O)O)C(=O)NCC(=O)N[C@@H](CC(=O)O)C(=O)N[C@@H](Cc1ccccc1)C(=O)O` (I: RGDF-OH / II: RGDF-OH; linker I:N-II:N via Adipoyl), for which the negative logarithm of the IC50 (pIC50) is 4.85. Consider `N=C(N)NCCC[C@H](NC(=O)CCCC(=O)N[C@@H](CCCNC(=N)N)C(=O)NCC(=O)N[C@@H](CC(=O)O)C(=O)N[C@@H](Cc1ccccc1)C(=O)O)C(=O)NCC(=O)N[C@@H](CC(=O)O)C(=O)N[C@@H](Cc1ccccc1)C(=O)O` (I: RGDF-OH / II: RGDF-OH; linker I:N-II:N via Glutaryl), for which the pIC50 is 4.82.

Take `N=C(N)NCCC[C@H](NC(=O)CCC(=O)N[C@@H](CCCNC(=N)N)C(=O)NCC(=O)N[C@@H](CC(=O)O)C(=O)N[C@@H](Cc1ccccc1)C(=O)O)C(=O)NCC(=O)N[C@@H](CC(=O)O)C(=O)N[C@@H](Cc1ccccc1)C(=O)O` (I: RGDF-OH / II: RGDF-OH; linker I:N-II:N via Suc): the pIC50 is 4.82.

On to `N=C(N)NCCC[C@H](NC(=O)C1Cc2ccccc2OC1=O)C(=O)NCC(=O)N[C@@H](CC(=O)O)C(=O)N[C@@H](Cc1ccccc1)C(=O)N1CCC[C@H]1C(=O)NCCCC[C@H](NC(=O)[C@@H]1CCCN1C(=O)[C@H](Cc1ccccc1)NC(=O)[C@H](CC(=O)O)NC(=O)CNC(=O)[C@H](CCCNC(=N)N)NC(=O)C1Cc2ccccc2OC1=O)C(N)=O` (stereo partly specified) (I: X2-RGDFPK-NH2 / II: X2-RGDFP; amide I:6-II:C), for which the pIC50 is 5.70.

Regarding `N=C(N)NCCC[C@H](NC(=O)[C@H](CO)NC(=O)c1ccc(NC(=N)N)cc1)C(=O)NCC(=O)N[C@@H](CC(=O)O)C(=O)N[C@@H](Cc1ccccc1)C(=O)N1CCC[C@H]1C(=O)NCCCC[C@H](NC(=O)[C@@H]1CCCN1C(=O)[C@H](Cc1ccccc1)NC(=O)[C@H](CC(=O)O)NC(=O)CNC(=O)[C@H](CCCNC(=N)N)NC(=O)[C@H](CO)NC(=O)c1ccc(NC(=N)N)cc1)C(N)=O` (I: {Benzoyl(4-guanidino)}-SRGDFPK-NH2 / II: {Benzoyl(4-guanidino)}-SRGDFP; amide I:7-II:C), the pIC50 is 7.06.

The pIC50 is the negative decadic logarithm of the IC50, by convention in mol/L.

These data come from ChEMBL document CHEMBL1151504, “Structure-activity relationships of double-strand RGD peptides as GPIIb/IIIa receptor antogonists” (Bioorg Med Chem Lett, 1994).
